Data as given in publication PMC9395446, “First-in-human phase 1/1b study to evaluate sitravatinib in patients with advanced solid tumors” (Investigational New Drugs, 2022).
Several values for one entry are separate records, joined by “and”; a condition that tells them apart may be missing. Identical values can stand only once.

What was measured:
[1] = test system: target RTKs, including AXL, MERTK, VEGF-R, KIT and MET; details: read-out: Biochemical half-maximal inhibitory concentration, range; against target RTKs; cited from earlier work
[2] = test system: advanced solid tumors; assay: Clinical activity by RECIST v1.1 (ORR, DoR, PFS, OS), phase 1b; assay type: in vivo, human
Experimental: Clinical activity was assessed by objective response rate (ORR) according to Response Evaluation Criteria In Solid Tumors (RECIST) v1.1. Additional endpoints included duration of response (DoR), progression-free survival (PFS) and overall survival (OS) in phase 1b cohorts of patients based on diagnosis and tumor molecular alterations. An exploratory post-hoc analysis of patients with non-squamous NSCLC who experienced disease progression on prior checkpoint inhibitor (CPI) therapy was performed.
Disease status was evaluated according to RECIST v1.1 at baseline and every three cycles in phase 1, and every two cycles (6-week intervals) in phase 1b. Assessments were performed until objective disease progression was documented or until subsequent anti-cancer therapy started (see Supplementary Information [Sect. 1.3] for details).
DoR, PFS and OS were reported descriptively and summarized using the Kaplan–Meier method. DoR was defined as the time from first documentation of objective tumor response (complete response [CR] or partial response [PR]) until first documentation of disease progression per RECIST 1.1 or death (any cause). PFS was defined as the time from first dose of study treatment until progressive disease as defined by RECIST 1.1 or death (any cause). OS was defined as the time from first dose of study treatment until death (any cause).

[3] = NSCLC with molecular alterations (n = 53)
[4] = non-squamous NSCLC with prior CPI experience (n = 24)
[5] = phase 1b Chr4q12 amplification (n=16)
[6] = phase 1b NSCLC KIF5B-RET (n=13)
[7] = phase 1b NSCLC RET rearrangement (n=23)
[8] = phase 1b all molecular alterations (n=113)
[9] = phase 1b mITT overall (n = 161)
[10] = phase 1b overall RET rearrangement (n=31)

## COCCNCc1ccc(-c2cc3nccc(Oc4ccc(NC(=O)C5(C(=O)Nc6ccc(F)cc6)CC5)cc4F)c3s2)nc1 [sitravatinib, Sitravatinib]
[1]
  IC50: 0.0015 to 0.02 µM
[2]; NSCLC with a molecular alteration of interest
  ORR: 13.2%
[2]; [3]
  CR: 0 n (%)
  DoR 6-month KM estimate (95% CI): 28.6 (4.1, 61.2) %
  DoR median (95% CI): 3.0 (1.8, 10.2) months
  NE (non-evaluable): 8 (15.1) n (%)
  ORR: 7 (13.2) n (%)
  OS 12-month KM estimate (95% CI): 47.6 (32.4, 61.3) %
  OS median (95% CI): 11.6 (6.6, 18.2) months
  PD (progressive disease): 8 (15.1) n (%)
  PFS 6-month KM estimate (95% CI): 32.2 (19.2, 46.0) %
  PFS median (95% CI): 4.3 (2.9, 5.7) months
  PR: 7 (13.2) n (%)
[2]; non-squamous NSCLC with prior CPI experience (exploratory)
  ORR: 4.2%
[2]; [4]
  CR: 0 n (%)
  DoR 6-month KM estimate (95% CI): 100 (100, 100) %
  DoR median (95% CI): 10.2 (NE, NE) months
  NE (non-evaluable): 6 (25.0) n (%)
  ORR: 1 (4.2) n (%)
  OS 12-month KM estimate (95% CI): 36.8 (16.5, 57.5) %
  OS median (95% CI): 5.2 (2.4, 33.8) months
  PD (progressive disease): 5 (20.8) n (%)
  PFS 6-month KM estimate (95% CI): 24.8 (7.8, 46.6) %
  PFS median (95% CI): 2.9 (1.5, 4.9) months
  PR: 1 (4.2) n (%)
[2]; overall phase 1b mITT population
  ORR: 11.8%
[2]; phase 1b AXL alteration (n=7)
  CR: 0 n (%)
  NE: 0 n (%)
  ORR: 1 (14.3) n (%)
  OS 12-month KM estimate (95% CI): 26.8 (1.3, 67.0) %
  OS median (95% CI): 10.0 (2.2, NE) months
  PD (progressive disease): 2 (28.6) n (%)
  PFS 6-month KM estimate (95% CI): 71.4 (25.8, 92.0) %
  PFS median (95% CI): NR (1.2, NE)
  PR: 1 (14.3) n (%)
[2]; phase 1b CBL alteration (n=31)
  CR: 0 n (%)
  DoR 6-month KM estimate (95% CI): 50.0 (0.6, 91.0) %
  DoR median (95% CI): NR (4.3, NE)
  NE: 9 (29.0) n (%)
  ORR: 2 (6.5) n (%)
  OS 12-month KM estimate (95% CI): 20.2 (7.4, 37.3) %
  OS median (95% CI): 5.0 (3.2, 9.9) months
  PD (progressive disease): 9 (29.0) n (%)
  PFS 6-month KM estimate (95% CI): 12.3 (3.1, 28.3) %
  PFS median (95% CI): 2.0 (1.3, 4.1) months
  PR: 2 (6.5) n (%)
[2]; phase 1b CRPC (n=10)
  CR: 0 n (%)
  NE: 3 (30.0) n (%)
  ORR: 0 n (%)
  OS 12-month KM estimate (95% CI): 18.2 (0.8, 54.5) %
  OS median (95% CI): 10.1 (2.8, 23.2) months
  PD (progressive disease): 1 (10.0) n (%)
  PFS 6-month KM estimate (95% CI): 50.0 (11.1, 80.4) %
  PFS median (95% CI): 5.8 (2.1, NE) months
  PR: 0 n (%)
[2]; [5]
  CR: 0 n (%)
  NE: 4 (25.0) n (%)
  ORR: 0 n (%)
  OS 12-month KM estimate (95% CI): 35.2 (13.3, 58.2) %
  OS median (95% CI): 9.5 (3.6, 18.1) months
  PD (progressive disease): 3 (18.8) n (%)
  PFS 6-month KM estimate (95% CI): 23.8 (5.8, 48.5) %
  PFS median (95% CI): 2.7 (1.3, 4.4) months
  PR: 0 n (%)
[2]; phase 1b MET alteration (n=17)
  CR: 0 n (%)
  DoR median (95% CI): NR (3.0, NE)
  NE: 3 (17.6) n (%)
  ORR: 2 (11.8) n (%)
  OS 12-month KM estimate (95% CI): 27.1 (8.4, 50.2) %
  OS median (95% CI): 7.3 (3.5, 13.9) months
  PD (progressive disease): 2 (11.8) n (%)
  PFS 6-month KM estimate (95% CI): 16.4 (2.8, 40.0) %
  PFS median (95% CI): 2.9 (1.9, 4.3) months
  PR: 2 (11.8) n (%)
[2]; [6]
  CR: 0 n (%)
  DoR 6-month KM estimate (95% CI): 100.0 (100.0, 100.0) %
  DoR median (95% CI): 10.2 (NE, NE) months
  NE: 3 (23.1) n (%)
  ORR: 1 (7.7) n (%)
  OS 12-month KM estimate (95% CI): 79.5 (39.3, 94.5) %
  OS median (95% CI): 27.2 (10.9, 33.8) months
  PD (progressive disease): 3 (23.1) n (%)
  PFS 6-month KM estimate (95% CI): 36.4 (11.2, 62.7) %
  PFS median (95% CI): 5.7 (1.5, 13.5) months
  PR: 1 (7.7) n (%)
[2]; [7]
  CR: 0 n (%)
  DoR 6-month KM estimate (95% CI): 25.0 (0.9, 66.5) %
  DoR median (95% CI): 2.3 (1.8, 10.2) months
  NE: 3 (13.0) n (%)
  ORR: 4 (17.4) n (%)
  OS 12-month KM estimate (95% CI): 73.2 (46.6, 88.1) %
  OS median (95% CI): 27.2 (10.9, NE) months
  PD (progressive disease): 3 (13.0) n (%)
  PFS 6-month KM estimate (95% CI): 40.3 (19.5, 60.4) %
  PFS median (95% CI): 5.7 (3.0, 13.5) months
  PR: 4 (17.4) n (%)
[2]; phase 1b RCC (n=38)
  CR: 0 n (%)
  DoR 6-month KM estimate (95% CI): 100.0 (100.0, 100.0) %
  DoR median (95% CI): 13.2 (6.8, NE) months
  NE: 3 (7.9) n (%)
  ORR: 8 (21.1) n (%)
  OS 12-month KM estimate (95% CI): 60.1 (41.3, 74.6) %
  OS median (95% CI): 29.3 (10.8, 33.4) months
  PD (progressive disease): 4 (10.5) n (%)
  PFS 6-month KM estimate (95% CI): 62.6 (43.5, 76.9) %
  PFS median (95% CI): 9.5 (4.3, 11.7) months
  PR: 8 (21.1) n (%)
[2]; [8]
  CR: 0 n (%)
  DoR 6-month KM estimate (95% CI): 53.0 (20.9, 77.3) %
  DoR median (95% CI): 7.0 (1.9, 15.2) months
  ORR: 11 (9.7) n (%)
  OS 12-month KM estimate (95% CI): 36.1 (26.3, 45.9) %
  OS median (95% CI): 9.9 (7.1, 10.9) months
  PD (progressive disease): 23 (20.4) n (%)
  PFS 6-month KM estimate (95% CI): 28.5 (19.6, 38.0) %
  PFS median (95% CI): 3.6 (2.7, 4.4) months
  PR: 11 (9.7) n (%)
[2]; [9]
  CR: 0 n (%)
  DoR 6-month KM estimate (95% CI): 71.3% and 71.3 (44.0, 87.0) %
  DoR median (95% CI): 8.2 months and 8.2 (4.3, 16.6) months
  NE (non-evaluable): 26 (16.1) n (%)
  ORR: 19 (11.8) n (%)
  OS 12-month KM estimate (95% CI): 41.3% and 41.3 (32.7, 49.6) %
  OS median (95% CI): 10.7 months and 10.7 (9.9, 11.9) months
  PD (progressive disease): 28 (17.4) n (%)
  PFS 6-month KM estimate (95% CI): 37.5% and 37.5 (29.2, 45.9) %
  PFS median (95% CI): 4.3 months and 4.3 (3.1, 5.6) months
  PR: 19 (11.8) n (%)
[2]; [10]
  CR: 0 n (%)
  DoR 6-month KM estimate (95% CI): 40.0 (5.2, 75.3) %
  DoR median (95% CI): 2.8 (1.8, 10.2) months
  NE: 3 (9.7) n (%)
  ORR: 5 (16.1) n (%)
  OS 12-month KM estimate (95% CI): 66.5 (43.3, 82.0) %
  OS median (95% CI): 18.2 (10.9, 33.8) months
  PD (progressive disease): 5 (16.1) n (%)
  PFS 6-month KM estimate (95% CI): 39.5 (21.8, 56.7) %
  PFS median (95% CI): 5.3 (3.0, 6.7) months
  PR: 5 (16.1) n (%)
